Experiments:
SIRT1 [1] = target: T1, SIRT1 (Homo sapiens, UniProt Q96EB6); test: Trp mass spectrometry assay of SIRT1 activity; assay type: biochemical; conditions: Trp assay; for Trp EC1.5 (μM): concentration giving 150% activation of SIRT1; for Emax: percent maximum fold activation, read-out: Trp % Fold Act
T1 sequence (Q96EB6 1-747): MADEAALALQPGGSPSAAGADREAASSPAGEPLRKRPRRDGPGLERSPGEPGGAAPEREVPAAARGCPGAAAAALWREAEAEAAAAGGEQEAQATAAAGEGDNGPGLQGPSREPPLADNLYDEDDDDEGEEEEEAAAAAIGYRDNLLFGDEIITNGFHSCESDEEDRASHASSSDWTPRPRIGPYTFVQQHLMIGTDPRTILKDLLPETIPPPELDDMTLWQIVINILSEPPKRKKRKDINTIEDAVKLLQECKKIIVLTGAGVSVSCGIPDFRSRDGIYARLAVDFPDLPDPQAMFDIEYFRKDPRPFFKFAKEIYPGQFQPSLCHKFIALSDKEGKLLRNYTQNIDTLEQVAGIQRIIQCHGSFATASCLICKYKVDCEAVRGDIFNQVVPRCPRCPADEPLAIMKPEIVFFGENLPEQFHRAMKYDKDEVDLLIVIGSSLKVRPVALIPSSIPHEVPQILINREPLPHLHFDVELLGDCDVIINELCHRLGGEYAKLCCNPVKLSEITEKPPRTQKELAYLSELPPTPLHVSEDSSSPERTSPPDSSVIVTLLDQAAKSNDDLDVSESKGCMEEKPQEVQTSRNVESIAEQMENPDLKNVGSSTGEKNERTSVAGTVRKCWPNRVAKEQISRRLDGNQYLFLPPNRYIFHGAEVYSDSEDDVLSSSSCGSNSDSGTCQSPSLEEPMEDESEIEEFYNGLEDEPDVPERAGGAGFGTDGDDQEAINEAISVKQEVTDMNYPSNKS
Method in brief: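 Activation readout: EC1.5 (concentration raising activity 50% over control) and percent maximum activation, from mass-spec quantitation of OAADPR or deacetylated Trp peptide. Reaction: 0.5 μM acetylated Trp peptide, 120 μM βNAD+, 10 nM bacterially expressed N-His SIRT1, pH 7.5 HEPES buffer with […], 25 min at 25° C.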

SIRT1 [2] = target: T1, SIRT1; test: TAMRA based mass spectrometry assay of SIRT1 activity; assay type: biochemical; conditions: TAMRA assay; for TAMRA EC1.5 (μM): concentration giving 150% activation of SIRT1; for Emax: percent maximum fold activation, read-out: TAMRA % Fold Act
Method in brief: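 Deacetylation of a biotinylated, TAMRA-tagged p53-based peptide (0.5 μM) by 10 nM His-tagged SIRT1 with 120 μM βNAD+, 25 °C for 25 min, pH 8 Tris-acetate buffer, across a compound concentration range. Quenched by formic acid and read by mass spec as product peptide or OAADPR; activity relative to DMSO reactions, nicotinamide defining maximal inhibition.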

Row | Trp EC1.5 (μM) (SIRT1 [1]) | Emax (SIRT1 [1]) [%] | TAMRA EC1.5 (μM) (SIRT1 [2]) | Emax (SIRT1 [2]) [%] | SMILES
1 | A (EC1.5<1 μM) | ≥ 350 | A (EC1.5<1 μM) | ≥ 350 | Cc1nc2c(OC[C@H](O)CO)cc(-c3ccccc3C(F)(F)F)nn2c1C(=O)Nc1cccnn1 [Compound 773, (R)-8-(2,3-dihydroxypropoxy)-2-methyl-N-(pyridazin-3-yl)-6-(2-(trifluoromethyl)phenyl)imidazo[1,2-b]pyridazine-3-carboxamide]
2 | C (EC1.5>25 μM) | < 350 | B (EC1.5 1-25 μM) | ≥ 350 | O=C(Nc1cnn2ccc(-c3ccccc3OC(F)(F)F)nc12)c1cc(O)ncn1 [Compound 776]
3 | A (EC1.5<1 μM) | < 350 | A (EC1.5<1 μM) | ≥ 350 | COc1cc(NC(=O)c2c(C)nn3ccc(-c4ccccc4C(F)(F)F)nc23)ncn1 [Compound 778]
4 | A (EC1.5<1 μM) | ≥ 350 | A (EC1.5<1 μM) | ≥ 350 | O=C(Nc1ccnc(O)c1)c1cnn2ccc(-c3ccccc3OC(F)(F)F)nc12 [Compound 779]
5 | C (EC1.5>25 μM) | < 350 | A (EC1.5<1 μM) | ≥ 350 | Cc1cnc(C(=O)Nc2cnn3ccc(-c4ccccc4OC(F)(F)F)nc23)s1 [Compound 782]
6 | A (EC1.5<1 μM) | ≥ 350 | A (EC1.5<1 μM) | ≥ 350 | Cc1nn2ccc(-c3ccccc3C(F)(F)F)nc2c1C(=O)Nc1ccnc(O)c1 [Compound 784]
7 | C (EC1.5>25 μM) | < 350 | B (EC1.5 1-25 μM) | ≥ 350 | O=C(Nc1cnn2ccc(-c3ccccc3OC(F)(F)F)nc12)c1cscn1 [Compound 785]
8 | B (EC1.5 1-25 μM) | ≥ 350 | B (EC1.5 1-25 μM) | ≥ 350 | Cc1nn2ccc(-c3ccccc3C(F)(F)F)nc2c1C(=O)Nc1ncc(F)cc1F [Compound 788]
9 | A (EC1.5<1 μM) | ≥ 350 | A (EC1.5<1 μM) | ≥ 350 | Cc1cccc(NC(=O)c2c(C)nc3ccc(-c4cccc(OC[C@H](O)CO)c4)nn23)n1 [Compound 790]
10 | B (EC1.5 1-25 μM) | < 350 | A (EC1.5<1 μM) | ≥ 350 | Cc1cc(C)nc(NC(=O)c2c(C)nc3ccc(-c4cccc(OC[C@H](O)CO)c4)nn23)c1 [Compound 791]
11 | B (EC1.5 1-25 μM) | < 350 | A (EC1.5<1 μM) | ≥ 350 | Cc1nccc(C(=O)Nc2cnn3ccc(-c4ccccc4C(F)(F)F)nc23)n1 [Compound 794]
12 | B (EC1.5 1-25 μM) | < 350 | A (EC1.5<1 μM) | ≥ 350 | CC(C)c1nccc(C(=O)Nc2cnn3ccc(-c4ccccc4C(F)(F)F)nc23)n1 [Compound 796]
13 | A (EC1.5<1 μM) | ≥ 350 | A (EC1.5<1 μM) | ≥ 350 | COc1nccc(NC(=O)c2cnn3ccc(-c4ccccc4OC(F)(F)F)nc23)n1 [Compound 797]
14 | C (EC1.5>25 μM) | < 350 | B (EC1.5 1-25 μM) | ≥ 350 | Cc1cnc(C(=O)Nc2cnn3ccc(-c4ccccc4C(F)(F)F)nc23)cn1 [Compound 800]
15 | C (EC1.5>25 μM) | < 350 | B (EC1.5 1-25 μM) | ≥ 350 | O=C(Nc1cnn2ccc(-c3ccccc3C(F)(F)F)nc12)c1cscn1 [Compound 802]
16 | C (EC1.5>25 μM) | < 350 | B (EC1.5 1-25 μM) | ≥ 350 | Cc1scnc1C(=O)Nc1cnn2ccc(-c3ccccc3C(F)(F)F)nc12 [Compound 803]
17 | B (EC1.5 1-25 μM) | ≥ 350 | A (EC1.5<1 μM) | ≥ 350 | Cc1cc(C)nc(NC(=O)c2cnn3ccc(-c4ccccc4C(F)(F)F)nc23)n1 [Compound 806]

Row | Trp EC1.5 (μM) (SIRT1 [1]) | Emax (SIRT1 [1]) [%] | TAMRA EC1.5 (μM) (SIRT1 [2]) | Emax (SIRT1 [2]) [%] | SMILES
18 | B (EC1.5 1-25 μM) | < 350 | A (EC1.5<1 μM) | ≥ 350 | CC(C)c1csc(C(=O)Nc2cnn3ccc(-c4ccccc4C(F)(F)F)nc23)n1 [Compound 808]
19 | C (EC1.5>25 μM) | < 350 | A (EC1.5<1 μM) | ≥ 350 | O=C(Nc1cnn2ccc(-c3ccccc3C(F)(F)F)nc12)c1nc(C(F)(F)F)cs1 [Compound 809]
20 | A (EC1.5<1 μM) | ≥ 350 | A (EC1.5<1 μM) | ≥ 350 | O=C(Nc1ccccn1)c1cnc2ccc(-c3ccccc3OC[C@H](O)CO)nn12 [Compound 812]
21 | B (EC1.5 1-25 μM) | < 350 | B (EC1.5 1-25 μM) | ≥ 350 | O=C(Nc1ccc(F)cn1)c1cnc2ccc(-c3ccccc3OC[C@H](O)CO)nn12 [Compound 814]
22 | A (EC1.5<1 μM) | ≥ 350 | A (EC1.5<1 μM) | ≥ 350 | Cc1nc2ccc(-c3ccccc3OC[C@H](O)CO)nn2c1C(=O)Nc1ccccn1 [Compound 815, (R)-6-(2-(2,3-dihydroxypropoxy)phenyl)-2-methyl-N-(pyridin-2-yl)imidazo[1,2-b]pyridazine-3-carboxamide]
23 | A (EC1.5<1 μM) | ≥ 350 | A (EC1.5<1 μM) | ≥ 350 | Cc1cccc(NC(=O)c2c(C)nc3ccc(-c4ccccc4OC[C@H](O)CO)nn23)n1 [Compound 816]
24 | B (EC1.5 1-25 μM) | < 350 | A (EC1.5<1 μM) | ≥ 350 | Cc1cc(NC(=O)c2c(C)nc3ccc(-c4ccccc4OC[C@H](O)CO)nn23)nc(C)n1 [Compound 818]
25 | B (EC1.5 1-25 μM) | < 350 | B (EC1.5 1-25 μM) | ≥ 350 | Cc1cnc(NC(=O)c2cnc3ccc(-c4ccccc4OC[C@H](O)CO)nn23)s1 [Compound 820]
26 | A (EC1.5<1 μM) | < 350 | B (EC1.5 1-25 μM) | < 350 | Cc1nc2ccc(-c3cccc(OC[C@H](O)CO)c3)nn2c1C(=O)Nc1ccc(F)cn1 [Compound 821]
27 | A (EC1.5<1 μM) | < 350 | A (EC1.5<1 μM) | < 350 | Cc1cnc(NC(=O)c2c(C)nc3ccc(-c4cccc(OC[C@H](O)CO)c4)nn23)s1 [Compound 823]
28 | A (EC1.5<1 μM) | ≥ 350 | B (EC1.5 1-25 μM) | ≥ 350 | Cc1ncccc1NC(=O)c1c(C)nn2ccc(-c3ccccc3Br)nc12 [Compound 824]
29 | A (EC1.5<1 μM) | < 350 | B (EC1.5 1-25 μM) | ≥ 350 | Cc1cc(C)c(NC(=O)c2c(C)nn3ccc(-c4ccccc4Br)nc23)cn1 [Compound 826]
30 | A (EC1.5<1 μM) | < 350 | A (EC1.5<1 μM) | ≥ 350 | Cc1cncc(NC(=O)c2c(C)nn3ccc(-c4ccccc4Br)nc23)c1 [Compound 827]
31 | C (EC1.5>25 μM) | < 350 | A (EC1.5<1 μM) | ≥ 350 | O=C(Nc1cnn2ccc(-c3ccccc3C(F)(F)F)nc12)c1cnc(O)cn1 [Compound 828]
32 | A (EC1.5<1 μM) | < 350 | A (EC1.5<1 μM) | ≥ 350 | Cc1cnc(NC(=O)c2c(C)nc3ccc(-c4ccccc4OC[C@H](O)CO)nn23)s1 [Compound 829]
33 | C (EC1.5>25 μM) | < 350 | A (EC1.5<1 μM) | ≥ 350 | O=C(Nc1cnn2ccc(-c3ccccc3C(F)(F)F)nc12)c1cc(O)ncn1 [Compound 830]
34 | B (EC1.5 1-25 μM) | < 350 | B (EC1.5 1-25 μM) | ≥ 350 | O=C(Nc1ccncc1F)c1cnc2ccc(-c3ccccc3OC[C@H](O)CO)nn12 [Compound 831]

— US9957271B2, “Substituted bicyclic aza-heterocycles and analogues as sirtuin modulators” (GlaxoSmithKline, LLC, priority 2012, dated 2018)
